Assay results: publication PMC13198932, “Pyrazolone-based ERO1 inhibitors in ERO1-driven triple-negative breast cancer and SEPN1-related myopathy: Structure–activity relationship and therapeutic potential” (Pharmacological research, 2025)
Where “and” joins values, the source holds several entries; their conditions need not be identical. Equal values may be shown once. Entries after “also recorded” stand apart in the source; their conditions may differ. Read-outs that look alike come from different tables or passages of the source.

Key:
recombinant ERO1A = molecular target: T1, recombinant ERO1A (Mus musculus, UniProt Q8R180); experiment: AUR-based kinetic assay of ERO1A activity (recombinant ERO1A and PDIA1, HRP, Amplex Ultra Red); format: biochemical; details: for IC50: Table 1 in Fig. 3
T1 construct: GST-SMT3-mouse ERO1A (residues 43–464); GST-SMT3 (GST-SUMO) (N, cleaved yes); made in house; host or cells: E. coli Rosetta DE3 (Novagen)
T1 sequence (Q8R180 43-464): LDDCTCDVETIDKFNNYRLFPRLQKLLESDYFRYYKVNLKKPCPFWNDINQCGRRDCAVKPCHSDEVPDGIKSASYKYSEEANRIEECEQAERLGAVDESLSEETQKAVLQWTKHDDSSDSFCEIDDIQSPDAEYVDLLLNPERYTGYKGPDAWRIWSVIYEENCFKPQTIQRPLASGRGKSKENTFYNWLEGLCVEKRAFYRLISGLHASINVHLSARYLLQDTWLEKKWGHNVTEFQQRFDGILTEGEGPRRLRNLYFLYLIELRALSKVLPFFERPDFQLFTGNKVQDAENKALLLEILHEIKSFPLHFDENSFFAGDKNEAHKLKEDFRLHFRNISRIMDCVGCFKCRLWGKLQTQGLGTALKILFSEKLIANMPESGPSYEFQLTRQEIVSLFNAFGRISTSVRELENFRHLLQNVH
Text: A GST-SMT3-mouse ERO1A (residues 43–464) and His-tagged PDIA1 [30] were expressed in the Rosetta DE3 bacteria (Novagen) and purified as described in [29, 31]. The GST-SMT3 and His tags were cleaved using Ulp protease (Z03691, GenScript) and thrombin protease (T6884, Merck), respectively. Successful tag removal was confirmed by a shift to a lower molecular weight for ERO1A on SDS-PAGE and by the absence of signal in anti-His immunoblotting for PDIA1.
The kinetic assay of ERO1A activity is based on a reaction involving recombinant ERO1A and PDIA1 proteins, horseradish peroxidase (Worthington), and 5 μM Amplex Ultra Red, as detailed in [29]. The effect of ERO1A inhibitors was evaluated by preincubating the compounds with ERO1A and measuring the inhibition of the linear reaction rate, and the corresponding IC50 values were determined using Prism 10 (GraphPad).
EN460 and 16 newly synthesized derivatives (I24–I40) (except for I31, which was not evaluated due to potential toxicity associated with its CN group) were evaluated for their ability to inhibit ERO1-dependent AUR fluorescence using a kinetic assay with recombinant ERO1 and PDIA1, as previously described (Figs. 3A and 3B). Raw kinetic data showing AUR fluorescence over time in reactions containing reduced ERO1, PDIA1 and EN460-derivatives are presented in Fig. Sup.1 A and Sup. 1B. Reaction rates, measured in presence or absence of varying concentrations of each compound, were used to calculate IC50 values, defined as the concentration required to inhibit 50 % of ERO1 enzymatic activity (Figs. 3C, 3D and Fig. Sup1C).

recombinant PDI = recombinant PDI (Homo sapiens, UniProt P07237); experiment: PDI activity assay (insulin transhydrogenase / insulin turbidity assay); format: biochemical; details: 25 μM, 15 min incubation
Description: PDI activity was assessed using an insulin transhydrogenase assay. Bovine insulin (1 mg/mL) in sodium phosphate buffer, pH 7.0, containing 2 mM EDTA, was incubated with 1.4 μM recombinant PDI in the presence of vehicle (1 % DMSO) or various concentrations of isoquercetin (30 or 60 μM), EN460, I2, I26, or I29 (1, 5, or 25 μM) for 15 min. The turbidimetric assay of insulin disulfide reduction by PDI was initiated by adding 1 mM dithiothreitol, and the reaction was monitored at 650 nm for 80 min. PDI activity is presented as a percentage of the vehicle control.

[1] = molecular target: T2, ERO1 in MDA-MB-231 breast cancer cells (Homo sapiens, UniProt Q96HE7); experiment: ERO1 redox state by non-reducing immunoblot in MDA-MB-231 cells; format: cell-based
T2 construct: Non-reducing Immunoblot of endogenous ERO1 in lysates of vehicle-treated MDAMB231; endogenous in cells; host or cells: MDA-MB-231
T2 sequence (Q96HE7 24-468): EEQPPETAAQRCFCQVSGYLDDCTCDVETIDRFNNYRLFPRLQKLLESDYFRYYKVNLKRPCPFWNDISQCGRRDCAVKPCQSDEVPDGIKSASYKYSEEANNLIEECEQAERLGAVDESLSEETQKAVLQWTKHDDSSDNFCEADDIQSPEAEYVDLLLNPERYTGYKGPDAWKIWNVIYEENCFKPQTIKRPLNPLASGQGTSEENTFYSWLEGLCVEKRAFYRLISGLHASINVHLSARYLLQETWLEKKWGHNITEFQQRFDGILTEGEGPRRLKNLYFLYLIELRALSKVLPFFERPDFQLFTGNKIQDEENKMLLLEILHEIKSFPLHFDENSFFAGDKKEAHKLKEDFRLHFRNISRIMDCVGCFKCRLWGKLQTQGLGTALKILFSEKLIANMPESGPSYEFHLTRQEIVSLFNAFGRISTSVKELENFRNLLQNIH
Description: MDAMB231 and E0771 cells were maintained in Dulbecco’s Modified Eagle’s Medium supplemented with 1 % fetal bovine serum and seeded at 70 % confluency in six-well plates one day prior to the experiment. Cells were treated with DTT (10 mM) and/or ERO1A inhibitors for 1–5 h. At the time of collection, phosphate-buffered saline containing 10 mM NEM was added, and cells were incubated on ice for 10 min in lysis buffer (50 mM Tris-HCl, pH 7.4; 150 mM NaCl; 1 % Triton X-100; 0.1 % SDS; 1 % sodium deoxycholate; protease inhibitors; and 10 mM NEM). Protein concentrations were determined using the BCA assay, and equal amounts of protein were separated by non-reducing SDS-PAGE followed by immunoblotting with a polyclonal antibody against ERO1A [33].

[2] = tested on: WT and SEPN1 KD C2C12 cells; experiment: Super resolution microscopy (SIM) of ER volume and mitochondrial network; format: cell-based; details: for mitochondrial network (total branch length): SEPN1 KD cells; for ER volume: WT and SEPN1 KD cells
Text: Structured illumination microscopy (SIM) was done on a Nikon SIM system with a 100 × 1.49 objective. Briefly, randomly selected cells were imaged at laser excitation of 405 nm (nuclei), 561 nm (ER), and 640 nm (mitochondria) with a 3D-SIM acquisition protocol. SIM images were quantified with ImageJ. After background normalization, the ER signals was segmentated to calculate the volume of the ER expressed as fraction of the cell. The segmentated mitochondrial signal was followed by the skeletonize function of ImageJ to perform mitochondria network analysis. We then applied the Analyze Skeleton 2D/3D plugin of ImageJ to measure each cell total branch length, expressed as μm.

[3] = compounds dissolved in DMSO, preincubated with ERO1A, NA stands for not active, read-out: IC50
[4] = logarithm of IC50 in μM, compounds dissolved in DMSO, read-out: Log IC50 (confidence intervals) (converted)

Sequence of recombinant PDI (P07237 18-508, species assumed): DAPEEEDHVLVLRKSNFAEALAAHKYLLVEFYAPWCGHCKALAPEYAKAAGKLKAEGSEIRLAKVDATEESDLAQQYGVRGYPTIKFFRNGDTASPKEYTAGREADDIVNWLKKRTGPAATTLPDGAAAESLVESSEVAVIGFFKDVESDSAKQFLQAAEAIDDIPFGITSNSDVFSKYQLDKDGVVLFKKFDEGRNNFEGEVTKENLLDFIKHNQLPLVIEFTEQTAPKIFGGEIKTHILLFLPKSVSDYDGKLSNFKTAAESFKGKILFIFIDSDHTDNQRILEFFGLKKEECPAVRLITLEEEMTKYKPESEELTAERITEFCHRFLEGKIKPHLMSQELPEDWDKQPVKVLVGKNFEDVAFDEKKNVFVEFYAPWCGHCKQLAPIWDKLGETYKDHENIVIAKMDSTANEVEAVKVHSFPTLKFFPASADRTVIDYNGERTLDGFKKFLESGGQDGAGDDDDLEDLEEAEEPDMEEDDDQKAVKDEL

| Structure (SMILES) | IC50 / potency relative to EN460 (recombinant ERO1A; compared with EN460) | ERO1 inhibitory activity (in words) (recombinant ERO1A; compounds dissolved in DMSO) | IC50 (recombinant ERO1A; [3]) | IC50 (recombinant ERO1A; [4]) | PDI activity (percentage of the vehicle control) (recombinant PDI) | ERO1 reduction compared with EN460 ([1]; MDAMB231, Fig. 4D) | mitochondrial network (total branch length) [2] | ER volume [2] | ERO1 reduction (redox state) ([1]; MDA-MB-231, 20 μM, Fig. Sup. 2A) | ERO1 reduction ([1]; MDA-MB-231, 20 μM, dose-response 1–20 μM, Fig. 4B) | concentration achieving complete ERO1 reduction ([1]; MDA-MB-231, dose-response 5–20 μM, Fig. Sup. 2B) |
| --- | --- | --- | --- | --- | --- | --- | --- | --- | --- | --- | --- |
| O=C1/C(=C/c2ccc(-c3ccccc3)o2)C(C(F)(F)F)=NN1c1ccccc1F [I29] | more than two times lower; also recorded: twofold lower; also recorded: approximately twofold higher activity; also recorded: twofold increase in potency | highest potency | 2.6 µM and ~2.6 µM | 2.63 µM | inhibited PDI activity | reduced more efficiently ERO1 | selectively improved the mitochondrial network | did not change substantially |  |  |  |
| O=C(O)c1cc(N2N=C(C(F)(F)F)/C(=C\c3ccc(-c4ccccc4)o3)C2=O)ccc1Cl [EN460, reference compound] |  |  | 6 µM | 5.89 µM | inhibited PDI activity |  | selectively improved the mitochondrial network | did not change substantially | efficiently reduced ERO1 | near-complete reduction of ERO1 | 15 µM |
